The source made the active and inactive calls. The rule behind the calls is not given here.
These compounds were tested on Mus musculus (assay: Neurotoxicity in Mus musculus albino (mouse) assessed as minimal motor impairment at 300 mg/kg, ip after 0.5 hr by rotarod test). Conditions: in vivo.
Type: toxicity, organism-based
Set-up: dose 300 mg/kg, route intraperitoneal

SMILES	Activity
O=c1c2ccccc2nc(-c2ccccc2)n1-c1nnc(-c2ccc(Cl)cc2)o1	Non-toxic
Cc1ccc(-c2nnc(-n3c(-c4ccccc4)nc4ccccc4c3=O)o2)cc1	Non-toxic
O=c1c2ccccc2nc(-c2ccccc2)n1-c1nnc(-c2ccccc2)o1	Non-toxic

Each compound was assayed on Mus musculus (assay: Neurotoxicity in Mus musculus albino (mouse) assessed as minimal motor impairment at 300 mg/kg, ip after 4 hr by rotarod test). Conditions: in vivo.
Type: toxicity, organism-based
Set-up: dose 300 mg/kg, route intraperitoneal

SMILES	Activity
O=c1c2ccccc2nc(-c2ccccc2)n1-c1nnc(-c2ccc(F)cc2)o1	Non-toxic
O=c1c2ccccc2nc(-c2ccccc2)n1-c1nnc(-c2ccc(Cl)cc2)o1	Non-toxic
O=c1c2ccccc2nc(-c2ccccc2)n1-c1nnc(-c2ccccc2)o1	Non-toxic

Each compound was assayed on Mus musculus (assay: Neurotoxicity in ip dosed Mus musculus albino (mouse) assessed as minimal motor impairment after 0.5 hr by rotarod test). Conditions: in vivo.
Type: toxicity, organism-based

SMILES	Activity
O=c1c2ccccc2nc(-c2ccccc2)n1-c1nnc(-c2ccc([N+](=O)[O-])cc2)o1	300 mg/kg
O=c1c2ccccc2nc(-c2ccccc2)n1-c1nnc(-c2ccc(F)cc2)o1	300 mg/kg
NC(=O)N1c2ccccc2C=Cc2ccccc21 [CARBAMAZEPINE]	100 mg/kg
COc1ccc(-c2nnc(-n3c(-c4ccccc4)nc4ccccc4c3=O)o2)cc1	300 mg/kg
O=C1NC(=O)C(c2ccccc2)(c2ccccc2)N1 [PHENYTOIN]	100 mg/kg

Each compound was assayed on Mus musculus (assay: Neurotoxicity in ip dosed Mus musculus albino (mouse) assessed as minimal motor impairment after 4 hr by rotarod test). Conditions: in vivo.
Type: toxicity, organism-based

SMILES	Activity
O=c1c2ccccc2nc(-c2ccccc2)n1-c1nnc(-c2ccc([N+](=O)[O-])cc2)o1	300 mg/kg
NC(=O)N1c2ccccc2C=Cc2ccccc21 [CARBAMAZEPINE]	300 mg/kg
Cc1ccc(-c2nnc(-n3c(-c4ccccc4)nc4ccccc4c3=O)o2)cc1	300 mg/kg
COc1ccc(-c2nnc(-n3c(-c4ccccc4)nc4ccccc4c3=O)o2)cc1	300 mg/kg
O=C1NC(=O)C(c2ccccc2)(c2ccccc2)N1 [PHENYTOIN]	100 mg/kg

Each compound was assayed on Mus musculus (assay: Anticonvulsant activity in Mus musculus albino (mouse) assessed as protection against subcutaneous metrazole-induced seizure at 300 mg/kg, ip after 4 hr). Conditions: not given.
Type: functional, organism-based
Set-up: dose 300 mg/kg

SMILES	Activity
O=c1c2ccccc2nc(-c2ccccc2)n1-c1nnc(-c2ccc([N+](=O)[O-])cc2)o1	inactive
O=c1c2ccccc2nc(-c2ccccc2)n1-c1nnc(-c2ccc(F)cc2)o1	inactive
O=c1c2ccccc2nc(-c2ccccc2)n1-c1nnc(-c2ccc(Cl)cc2)o1	inactive
Cc1ccc(-c2nnc(-n3c(-c4ccccc4)nc4ccccc4c3=O)o2)cc1	inactive
O=c1c2ccccc2nc(-c2ccccc2)n1-c1nnc(-c2ccccc2)o1	inactive
COc1ccc(-c2nnc(-n3c(-c4ccccc4)nc4ccccc4c3=O)o2)cc1	inactive
O=C1NC(=O)C(c2ccccc2)(c2ccccc2)N1 [PHENYTOIN]	inactive

These compounds were tested on Mus musculus (assay: Anticonvulsant activity in Mus musculus albino (mouse) assessed as protection against maximal electroshock-induced seizure at 300 mg/kg, ip after 0.5 hr). Conditions: not given.
Type: functional, organism-based
Set-up: dose 300 mg/kg

SMILES	Activity
O=c1c2ccccc2nc(-c2ccccc2)n1-c1nnc(-c2ccc([N+](=O)[O-])cc2)o1	inactive
O=c1c2ccccc2nc(-c2ccccc2)n1-c1nnc(-c2ccc(Cl)cc2)o1	inactive
Cc1ccc(-c2nnc(-n3c(-c4ccccc4)nc4ccccc4c3=O)o2)cc1	inactive
COc1ccc(-c2nnc(-n3c(-c4ccccc4)nc4ccccc4c3=O)o2)cc1	inactive

Each compound was assayed on Mus musculus (assay: Anticonvulsant activity in ip dosed Mus musculus albino (mouse) assessed as protection against subcutaneous metrazole-induced seizure after 4 hr). Conditions: read-out: MED.
Type: functional

SMILES	minimal effective dose
NC(=O)N1c2ccccc2C=Cc2ccccc21 [CARBAMAZEPINE]	300 mg/kg

The compounds below were run on Mus musculus (assay: Anticonvulsant activity in ip dosed Mus musculus albino (mouse) assessed as protection against maximal electroshock-induced seizure after 4 hr). Conditions: read-out: MED.
Type: functional

SMILES	minimal effective dose
O=c1c2ccccc2nc(-c2ccccc2)n1-c1nnc(-c2ccc(F)cc2)o1	300 mg/kg
NC(=O)N1c2ccccc2C=Cc2ccccc21 [CARBAMAZEPINE]	100 mg/kg
O=C1NC(=O)C(c2ccccc2)(c2ccccc2)N1 [PHENYTOIN]	30 mg/kg

These compounds were tested on Mus musculus (assay: Anticonvulsant activity in Mus musculus albino (mouse) assessed as protection against subcutaneous metrazole-induced seizure at 300 mg/kg, ip after 0.5 hr). Conditions: not given.
Type: functional, organism-based
Set-up: dose 300 mg/kg

SMILES	Activity
O=c1c2ccccc2nc(-c2ccccc2)n1-c1nnc(-c2ccc([N+](=O)[O-])cc2)o1	inactive
O=c1c2ccccc2nc(-c2ccccc2)n1-c1nnc(-c2ccc(F)cc2)o1	inactive
O=c1c2ccccc2nc(-c2ccccc2)n1-c1nnc(-c2ccc(Cl)cc2)o1	inactive
Cc1ccc(-c2nnc(-n3c(-c4ccccc4)nc4ccccc4c3=O)o2)cc1	inactive
O=c1c2ccccc2nc(-c2ccccc2)n1-c1nnc(-c2ccccc2)o1	inactive
COc1ccc(-c2nnc(-n3c(-c4ccccc4)nc4ccccc4c3=O)o2)cc1	inactive
O=C1NC(=O)C(c2ccccc2)(c2ccccc2)N1 [PHENYTOIN]	inactive

What follows are compounds tested on Mus musculus (assay: Anticonvulsant activity in Mus musculus albino (mouse) assessed as protection against maximal electroshock-induced seizure at 300 mg/kg, ip after 4 hr). Conditions: not given.
Type: functional, organism-based
Set-up: dose 300 mg/kg

SMILES	Activity
O=c1c2ccccc2nc(-c2ccccc2)n1-c1nnc(-c2ccc([N+](=O)[O-])cc2)o1	inactive
O=c1c2ccccc2nc(-c2ccccc2)n1-c1nnc(-c2ccc(Cl)cc2)o1	inactive
Cc1ccc(-c2nnc(-n3c(-c4ccccc4)nc4ccccc4c3=O)o2)cc1	inactive
O=c1c2ccccc2nc(-c2ccccc2)n1-c1nnc(-c2ccccc2)o1	inactive
COc1ccc(-c2nnc(-n3c(-c4ccccc4)nc4ccccc4c3=O)o2)cc1	inactive

Each compound was assayed on Mus musculus (assay: Anticonvulsant activity in ip dosed Mus musculus albino (mouse) assessed as protection against maximal electroshock-induced seizure after 0.5 hr). Conditions: read-out: MED.
Type: functional

SMILES	minimal effective dose
O=c1c2ccccc2nc(-c2ccccc2)n1-c1nnc(-c2ccc(F)cc2)o1	300 mg/kg
NC(=O)N1c2ccccc2C=Cc2ccccc21 [CARBAMAZEPINE]	30 mg/kg
O=c1c2ccccc2nc(-c2ccccc2)n1-c1nnc(-c2ccccc2)o1	300 mg/kg
O=C1NC(=O)C(c2ccccc2)(c2ccccc2)N1 [PHENYTOIN]	30 mg/kg

The compounds below were run on Mus musculus (assay: Anticonvulsant activity in ip dosed Mus musculus albino (mouse) assessed as protection against subcutaneous metrazole-induced seizure after 0.5 hr). Conditions: read-out: MED.
Type: functional

SMILES	minimal effective dose
NC(=O)N1c2ccccc2C=Cc2ccccc21 [CARBAMAZEPINE]	100 mg/kg

Source: ChEMBL document CHEMBL3044641, “Design and synthesis of some novel 3-[5-(4-substituted) phenyl-1,3,4-oxadiazole-2yl]-2-phenylquinazoline-4(3H)-ones as possible anticonvulsant agent” (Med Chem Res, 2011)
